Assay results published in PubChem BioAssay AID2060493 (Molecular Pharmacology Branch, DTP, NCI, 2025).

Test system: 616215-338-R-J1-PDC tumor spheroids, viability
Assay: Anticancer human tumor 616215-338-R-J1-PDC patient-derived colon adenocarcinoma cell line growth inhibition [GQUAD]
Conditions: spheroids with HUVEC and MSC; for IC50: curve of first compound; for viability, T/C: stronger effect = lower value
Method in brief: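 Multi-cell-type spheroids of tumor cells with HUVEC and mesenchymal stem cells, treated with drug combinations. Concentrations descend in half-log steps from near clinical Cmax, or from 10 microM where Cmax is unknown; viability read-out.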

[1] = second compound 0.0316 µM, first compound 0.0316 µM
[2] = second compound 0.0316 µM, first compound 0.316 µM
[3] = second compound 0.1 µM, first compound 0.0316 µM
[4] = second compound 0.1 µM, first compound 0.316 µM
[5] = second compound 0.316 µM, first compound 0.0316 µM
[6] = second compound 0.316 µM, first compound 0.316 µM
[7] = second compound 1 µM, first compound 0.0316 µM
[8] = second compound 1 µM, first compound 0.316 µM
[9] = second compound 3.16 µM, first compound 0.0316 µM
[10] = second compound 3.16 µM, first compound 0.316 µM
[11] = second compound 10 µM, first compound 0.0316 µM
[12] = second compound 10 µM, first compound 0.316 µM
[13] = second compound 0.0316 µM, first compound 0.1 µM
[14] = second compound 0.0316 µM, first compound 1 µM
[15] = second compound 0.0316 µM, first compound 3.16 µM
[16] = second compound 0.0316 µM, first compound 10 µM
[17] = second compound 0.1 µM, first compound 0.1 µM
[18] = second compound 0.1 µM, first compound 1 µM
[19] = second compound 0.1 µM, first compound 3.16 µM
[20] = second compound 0.1 µM, first compound 10 µM
[21] = second compound 0.316 µM, first compound 0.1 µM
[22] = second compound 0.316 µM, first compound 1 µM
[23] = second compound 0.316 µM, first compound 3.16 µM
[24] = second compound 0.316 µM, first compound 10 µM
[25] = second compound 1 µM, first compound 0.1 µM
[26] = second compound 1 µM, first compound 1 µM
[27] = second compound 1 µM, first compound 3.16 µM
[28] = second compound 1 µM, first compound 10 µM
[29] = second compound 3.16 µM, first compound 0.1 µM
[30] = second compound 3.16 µM, first compound 1 µM
[31] = second compound 3.16 µM, first compound 3.16 µM
[32] = second compound 3.16 µM, first compound 10 µM
[33] = second compound 10 µM, first compound 0.1 µM
[34] = second compound 10 µM, first compound 1 µM
[35] = second compound 10 µM, first compound 3.16 µM
[36] = second compound 10 µM, first compound 10 µM
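Also: spheroids exposed to agents for 7 days before readout.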
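For viability, T/C in this document: percent viability relative to DMSO vehicle control wells taken as 100%.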

## Cc1[nH]c2ccccc2c1CCNCc1ccc(/C=C/C(=O)NO)cc1 + Cc1[nH]c2ccc(F)cc2c1-c1nc2c3cccnc3c3ncccc3c2[nH]1
Second compound 0.0316 µM
  IC50: 0.145 µM
Second compound 0.1 µM
  IC50: 0.178 µM
Second compound 0.316 µM
  IC50: 0.162 µM
Second compound 1 µM
  IC50: 0.131 µM
Second compound 3.16 µM
  IC50: 0.132 µM
Second compound 10 µM
  IC50: 0.125 µM
Second compound 0.0316 µM, first compound 0.000999 µM
  viability, T/C: 110%
Second compound 0.0316 µM, first compound 0.00316 µM
  viability, T/C: 98.6%
Second compound 0.0316 µM, first compound 0.00999 µM
  viability, T/C: 95.8%
[1]
  viability, T/C: 108%
Second compound 0.0316 µM, first compound 0.0999 µM
  viability, T/C: 67.6%
[2]
  viability, T/C: 13.2%
Second compound 0.1 µM, first compound 0.000999 µM
  viability, T/C: 93.6%
Second compound 0.1 µM, first compound 0.00316 µM
  viability, T/C: 96.6%
Second compound 0.1 µM, first compound 0.00999 µM
  viability, T/C: 94.4%
[3]
  viability, T/C: 97%
Second compound 0.1 µM, first compound 0.0999 µM
  viability, T/C: 89.6%
[4]
  viability, T/C: 10.9%
Second compound 0.316 µM, first compound 0.000999 µM
  viability, T/C: 99.5%
Second compound 0.316 µM, first compound 0.00316 µM
  viability, T/C: 109%
Second compound 0.316 µM, first compound 0.00999 µM
  viability, T/C: 104%
[5]
  viability, T/C: 97.9%
Second compound 0.316 µM, first compound 0.0999 µM
  viability, T/C: 79.8%
[6]
  viability, T/C: 9.21%
Second compound 1 µM, first compound 0.000999 µM
  viability, T/C: 102%
Second compound 1 µM, first compound 0.00316 µM
  viability, T/C: 98.5%
Second compound 1 µM, first compound 0.00999 µM
  viability, T/C: 93.1%
[7]
  viability, T/C: 101%
Second compound 1 µM, first compound 0.0999 µM
  viability, T/C: 62%
[8]
  viability, T/C: 10.9%
Second compound 3.16 µM, first compound 0.000999 µM
  viability, T/C: 98%
Second compound 3.16 µM, first compound 0.00316 µM
  viability, T/C: 92.6%
Second compound 3.16 µM, first compound 0.00999 µM
  viability, T/C: 100%
[9]
  viability, T/C: 94%
Second compound 3.16 µM, first compound 0.0999 µM
  viability, T/C: 62.7%
[10]
  viability, T/C: 10.8%
Second compound 10 µM, first compound 0.000999 µM
  viability, T/C: 99.7%
Second compound 10 µM, first compound 0.00316 µM
  viability, T/C: 99.5%
Second compound 10 µM, first compound 0.00999 µM
  viability, T/C: 103%
[11]
  viability, T/C: 95.1%
Second compound 10 µM, first compound 0.0999 µM
  viability, T/C: 59.9%
[12]
  viability, T/C: 8.56%

## COc1ccc([C@@H](O)c2cc(-c3ncnc4cc(N5CCOCC5)ccc34)c(F)cc2Cl)nn1 + CN(C)c1ccc(Nc2c3ccc(NC(=O)CCN4CCCC4)cc3nc3cc(NC(=O)CCN4CCCC4)ccc23)cc1
Second compound 0.0316 µM
  IC50: > 10 µM
Second compound 0.1 µM
  IC50: > 10 µM
Second compound 0.316 µM
  IC50: > 10 µM
Second compound 1 µM
  IC50: 8.16 µM
Second compound 3.16 µM
  IC50: 6.04 µM
Second compound 10 µM
  IC50: 3.4 µM
[1]
  viability, T/C: 105%
[13]
  viability, T/C: 99.2%
[2]
  viability, T/C: 101%
[14]
  viability, T/C: 98.1%
[15]
  viability, T/C: 93.1%
[16]
  viability, T/C: 58.6%
[3]
  viability, T/C: 96.3%
[17]
  viability, T/C: 94.6%
[4]
  viability, T/C: 104%
[18]
  viability, T/C: 102%
[19]
  viability, T/C: 87.6%
[20]
  viability, T/C: 55.6%
[5]
  viability, T/C: 101%
[21]
  viability, T/C: 93%
[6]
  viability, T/C: 102%
[22]
  viability, T/C: 103%
[23]
  viability, T/C: 97.7%
[24]
  viability, T/C: 54.6%
[7]
  viability, T/C: 97.7%
[25]
  viability, T/C: 100%
[8]
  viability, T/C: 94.3%
[26]
  viability, T/C: 92.7%
[27]
  viability, T/C: 89.1%
[28]
  viability, T/C: 41.3%
[9]
  viability, T/C: 91%
[29]
  viability, T/C: 89.9%
[10]
  viability, T/C: 90.4%
[30]
  viability, T/C: 101%
[31]
  viability, T/C: 74.9%
[32]
  viability, T/C: 30.6%
[11]
  viability, T/C: 91.3%
[33]
  viability, T/C: 90.8%
[12]
  viability, T/C: 93.7%
[34]
  viability, T/C: 64.2%
[35]
  viability, T/C: 57.6%
[36]
  viability, T/C: 10.2%

## COc1ncnc(C2CC2)c1-c1ncc2cnn(Cc3ccc(-c4nc(C(F)(F)F)cn4C(C)C)cc3)c2n1 + Cc1[nH]c2ccc(F)cc2c1-c1nc2c3cccnc3c3ncccc3c2[nH]1
Second compound 0.0316 µM
  IC50: > 10 µM
Second compound 0.1 µM
  IC50: > 10 µM
Second compound 0.316 µM
  IC50: > 10 µM
Second compound 1 µM
  IC50: > 10 µM
Second compound 3.16 µM
  IC50: > 10 µM
Second compound 10 µM
  IC50: > 10 µM
[1]
  viability, T/C: 109%
[13]
  viability, T/C: 98.5%
[2]
  viability, T/C: 106%
[14]
  viability, T/C: 91.9%
[15]
  viability, T/C: 106%
[16]
  viability, T/C: 101%
[3]
  viability, T/C: 108%
[17]
  viability, T/C: 93.7%
[4]
  viability, T/C: 96.1%
[18]
  viability, T/C: 98.2%
[19]
  viability, T/C: 100%
[20]
  viability, T/C: 105%
[5]
  viability, T/C: 106%
[21]
  viability, T/C: 96.3%
[6]
  viability, T/C: 96.5%
[22]
  viability, T/C: 99.8%
[23]
  viability, T/C: 103%
[24]
  viability, T/C: 107%
[7]
  viability, T/C: 100%
[25]
  viability, T/C: 97.9%
[8]
  viability, T/C: 96.5%
[26]
  viability, T/C: 101%
[27]
  viability, T/C: 108%
[28]
  viability, T/C: 99.8%
[9]
  viability, T/C: 101%
[29]
  viability, T/C: 104%
[10]
  viability, T/C: 94.7%
[30]
  viability, T/C: 105%
[31]
  viability, T/C: 109%
[32]
  viability, T/C: 104%
[11]
  viability, T/C: 97%
[33]
  viability, T/C: 90.1%
[12]
  viability, T/C: 98.4%
[34]
  viability, T/C: 98.4%
[35]
  viability, T/C: 98.7%
[36]
  viability, T/C: 96.3%

## COc1cc(C2c3cc4c(cc3C(OC3OC5COC(C)OC5C(O)C3O)C3COC(=O)C23)OCO4)cc(OC)c1O (stereo not given) + Cc1[nH]c2ccc(F)cc2c1-c1nc2c3cccnc3c3ncccc3c2[nH]1
Second compound 0.0316 µM
  IC50: 0.669 µM
Second compound 0.1 µM
  IC50: 1.05 µM
Second compound 0.316 µM
  IC50: 0.889 µM
Second compound 1 µM
  IC50: 0.584 µM
Second compound 3.16 µM
  IC50: 0.541 µM
Second compound 10 µM
  IC50: 0.72 µM
[1]
  viability, T/C: 113%
[13]
  viability, T/C: 97.5%
[2]
  viability, T/C: 64.9%
[14]
  viability, T/C: 41.6%
[15]
  viability, T/C: 32.4%
[16]
  viability, T/C: 25.4%
[3]
  viability, T/C: 105%
[17]
  viability, T/C: 101%
[4]
  viability, T/C: 67.1%
[18]
  viability, T/C: 54.4%
[19]
  viability, T/C: 36.2%
[20]
  viability, T/C: 28.4%
[5]
  viability, T/C: 84.6%
[21]
  viability, T/C: 104%
[6]
  viability, T/C: 75.7%
[22]
  viability, T/C: 47%
[23]
  viability, T/C: 31.9%
[24]
  viability, T/C: 22.5%
[7]
  viability, T/C: 95.9%
[25]
  viability, T/C: 97.9%
[8]
  viability, T/C: 65.5%
[26]
  viability, T/C: 37.5%
[27]
  viability, T/C: 41.9%
[28]
  viability, T/C: 25.4%
[9]
  viability, T/C: 86.2%
[29]
  viability, T/C: 96.2%
[10]
  viability, T/C: 63.2%
[30]
  viability, T/C: 36.5%
[31]
  viability, T/C: 40.4%
[32]
  viability, T/C: 27.7%
[11]
  viability, T/C: 93.8%
[33]
  viability, T/C: 87.3%
[12]
  viability, T/C: 67.9%
[34]
  viability, T/C: 40.8%
[35]
  viability, T/C: 34.3%
[36]
  viability, T/C: 23%

## CCCS(=O)(=O)Nc1ccc(F)c(C(=O)c2c[nH]c3ncc(-c4ccc(Cl)cc4)cc23)c1F + CN(C)c1ccc(Nc2c3ccc(NC(=O)CCN4CCCC4)cc3nc3cc(NC(=O)CCN4CCCC4)ccc23)cc1
Second compound 0.0316 µM
  IC50: 5.56 µM
Second compound 0.1 µM
  IC50: 5.39 µM
Second compound 0.316 µM
  IC50: 5.39 µM
Second compound 1 µM
  IC50: 5.91 µM
Second compound 3.16 µM
  IC50: 5.18 µM
Second compound 10 µM
  IC50: 3.79 µM
[1]
  viability, T/C: 103%
[13]
  viability, T/C: 110%
[2]
  viability, T/C: 108%
[14]
  viability, T/C: 105%
[15]
  viability, T/C: 94.3%
[16]
  viability, T/C: 3.74%
[3]
  viability, T/C: 101%
[17]
  viability, T/C: 92.6%
[4]
  viability, T/C: 112%
[18]
  viability, T/C: 94.6%
[19]
  viability, T/C: 89.8%
[20]
  viability, T/C: 3.81%
[5]
  viability, T/C: 105%
[21]
  viability, T/C: 96.5%
[6]
  viability, T/C: 99.7%
[22]
  viability, T/C: 92%
[23]
  viability, T/C: 89.3%
[24]
  viability, T/C: 4.92%
[7]
  viability, T/C: 112%
[25]
  viability, T/C: 88.7%
[8]
  viability, T/C: 89.1%
[26]
  viability, T/C: 100%
[27]
  viability, T/C: 97.3%
[28]
  viability, T/C: 10.3%
[9]
  viability, T/C: 101%
[29]
  viability, T/C: 99.4%
[10]
  viability, T/C: 105%
[30]
  viability, T/C: 85.4%
[31]
  viability, T/C: 84.9%
[32]
  viability, T/C: 7.85%
[11]
  viability, T/C: 88.9%
[33]
  viability, T/C: 73.8%
[12]
  viability, T/C: 94%
[34]
  viability, T/C: 88%
[35]
  viability, T/C: 58.4%
[36]
  viability, T/C: 5.74%
